The values that follow are results of earlier work, collected in patent US6303615A, “2,3 disubstituded-4(3H)-quinazolinones” (Pfizer Inc, priority 1999, dated 2001).

Structures are written as SMILES.

The conditions of series [1]: reported in literature (LaPeillet et al.).
For series [2] the following is noted: reported in literature (Sheardown et al.; Buchan et al.; LePeillet et al.).

Regarding `CC1=NN=C(c2ccc(N)cc2)c2cc3c(cc2C1)OCO3` [GKYI 52466], the “neuroprotection in rat global ischemia models” value in series [1] was “effective neuroprotective agent”.
For the compound `NS(=O)(=O)c1cccc2c1c([N+](=O)[O-])cc1[nH]c(=O)c(=O)[nH]c12` [NBQX, 2,3-dihydroxy-6-nitro-7-sulfamoylbenzo[f-]quinoxaline], the “preventing global and focal ischemic damage” value in series [2] is “effective”.
